Test results: US20170071903A1, “USE OF ERIBULIN AND MTOR INHIBITORS AS COMBINATION THERAPY FOR THE TREATMENT OF CANCER” (Eisai R&D Management Co., Ltd., priority 2014, published 2017)
Counter-ions that a name gives are not always drawn. Like-named read-outs stand apart in the source and are kept apart here.

Key:
[1] = system: MX-1 human mammary tumor xenografts; assay: Growth of subcutaneously-implanted MX-1 human mammary tumor xenografts in mice
Excerpt: A total of 120 tumor bearing mice were divided into twelve groups of 10 mice. […] All treatments were initiated 10 days after the implantation of tumor xenografts.
Six-weeks-old female, athymic NCr-nu/nu mice were purchased from Charles River Laboratories (Wilmington, Mass.) and acclimated in the laboratories for 10 days prior to experimentation. The animals were housed in microisolator cages, five per cage with a 12-hour light/dark cycle. The animals received filtered Birmingham municipal water and sterilized Teklad Global 16% protein rodent diet (2016S, Harlan Laboratories, Inc.) ad libitum. No consumable enrichment was provided. Enrich-n'Nest paper rolls (the Andersons Lab Bedding Products, Maumee, Ohio) were provided in each cage as manipulanda. Cages were changed twice weekly. The animals were observed daily and clinical signs were noted.
Each mouse was implanted SC near the right flank with a 30-40 mg fragment of MX-1 human mammary tumor from an in vivo passage using a 13-gauge needle. The day of tumor fragments implantation was designated as Day 0. Individual tumors of 120 animals grew to 100-245 mg in weight (100-245 mm^3 in size) on the day of treatment initiation, Day 10 after tumor fragments implantation. Those animals selected with tumors in the proper size range were assigned to twelve treatment groups so that the mean and median tumor weights in all groups on the first day of treatment were as close to each other as possible (mean tumor weights ranged from 160 to 168 mg, median tumor weights were 153 or 162 mg).
The solution was allowed to stand for 2-3 minutes to make sure it was fully in solution. […] On each day of treatment, an aliquot was thawed at room temperature and diluted with saline to yield a concentration of 0.06 mg/mL in 2.5% DMSO/97.5% saline. Lower concentrations of 0.04 and 0.02 mg/mL were achieved by dilution of a portion of the 0.06 mg/mL solution with 2.5% DMSO/97.5% saline. Bottles with dosing solutions were stored at 4° C. between formulation and administration.
0.5% MC/0.2% T80 in WFI was formulated and the solution was stored at 4° C. […] A portion of the 4 mg/mL cloudy solution was diluted with 0.5% MC/0.2% T80 in WFI to 2 mg/mL. Bottles with dosing solutions were stored at 4° C. between formulation and administration.
The experiment consisted of a vehicles-treated control group and eleven drug-treated groups of 10 mice per group for a total of 120 mice on the first day of treatment. All treatments were initiated on Day 10. […] On the days when both compounds were administered, E7389 was administered to all combination groups first [−(0)]
Animals were observed once daily for mortality and morbidity. The SC tumors were measured and the animals were weighed twice weekly starting with the first day of treatment, Day 10 after tumor fragment implantation.

[2] = From the text: No consumable enrichment was provided. […] Cages were changed twice weekly.
All treatments were initiated on Day 10.

[3] = system: twenty-five cell line panel; assay: Anti-proliferation assay (ATPLite, growth inhibition), single agent dose response; type: cell-based; conditions: median across cell lines reaching >50% inhibition; 72 h; three-fold, ten-point dose titration
Method: Cells are thawed from a liquid nitrogen preserved state. […] The calculation for synergy score is provided below. […] This formula is derived from the Growth Inhibition calculation used in the National Cancer Institute's NCI-60 high throughput screen. All single agent and combination data analysis are performed in growth inhibition. Eribulin had varying activity across a twenty-five cell line panel. Single agent activity was assessed using a three-fold, ten-point dose titration. Twenty-three cell lines were evaluated in 1536-well plate format. Two additional cell lines were evaluated in 384-well plate format.

[4] = everolimus 20 mg/kg/dose PO Q1Dx16 (Group 6)
[5] = everolimus 40 mg/kg/dose PO Q1Dx16 (Group 5)
[6] = E7389 0.2 mg/kg/injection IV Q4Dx4 (Group 4)
[7] = E7389 0.4 mg/kg/injection IV Q4Dx4 (Group 3)

CO[C@H]1C[C@@H]2CC[C@@H](C)[C@@](O)(O2)C(=O)C(=O)N2CCCC[C@H]2C(=O)O[C@H]([C@H](C)C[C@@H]2CC[C@@H](OCCO)[C@H](OC)C2)CC(=O)[C@H](C)/C=C(\C)[C@@H](O)[C@@H](OC)C(=O)[C@H](C)C[C@H](C)/C=C/C=C/C=C/1C [everolimus]
T/C value on Day 34 (median tumor weight) [1, 4]: 74%
median tumor growth delay (T-C) [1, 4]: 4.0 days
T/C value on Day 34 (median tumor weight) [1, 5]: 46%
median tumor growth delay (T-C) [1, 5]: 6.1 days
inhibition of the growth of the MX-1 mammary tumor xenografts ([1]; everolimus 40 and 20 mg/kg/dose PO): minimally effective
maximum tolerated dose (MTD) ([2]; mouse, in vivo, po): not reached

C=C1C[C@@H]2CC[C@@]34C[C@H]5O[C@H]6[C@@H](O3)[C@H]3O[C@H](CC[C@@H]3O[C@H]6[C@H]5O4)CC(=O)C[C@@H]3[C@@H](OC)[C@@H](C[C@H](O)CN)O[C@H]3C[C@H]3O[C@@H](CC[C@@H]1O2)C[C@@H](C)C3=C [E7389, II, 15:18,21:24,28-triepoxy-7,9-ethano-12,15-methano-9H,15H-furo[3,2-i]furo[2′,3′:5,6]pyrano[4,3-b][1,4]dioxacyclopentacosin-5(4H)-one, 2-[(2S)-3-amino-2-hydroxypropyl]hexacosahydro-3-methoxy-26-methyl-20,27-bis(methylene)-, (2R,3R,3aS,7R,8aS,9S,10aR,11S,12R,13aR,13bS,15S,18S,21S,24S,26R,28R,29aS)-methanesulfonate (salt)]
T/C value on Day 34 (median tumor weight) [1, 6]: 51%
median tumor growth delay (T-C) [1, 6]: > 6.3 days
T/C value on Day 34 (median tumor weight) [1, 7]: 13%
median tumor growth delay (T-C) [1, 7]: 17.7 days
number of tumor-free survivors on day of study termination (Day 62) ([1]; E7389 0.6 mg/kg/injection (Group 2)): five
number of complete tumor regressions ([1]; E7389 0.6 mg/kg/injection (Group 2), out of ten animals): six
T/C value on Day 34 (median tumor weight) ([1]; E7389 0.6 mg/kg/injection IV Q4Dx4 (Group 2)): 0%
median tumor growth delay (T-C) ([1]; E7389 0.6 mg/kg/injection IV Q4Dx4 (Group 2), time to four tumor mass doublings): > 33.8 days
inhibition of the growth of the MX-1 mammary tumor xenografts ([1]; E7389 0.6, 0.4 and 0.2 mg/kg/injection IV): very effective
tolerability / deaths ([2]; E7389 0.6, 0.4 and 0.2 mg/kg/injection IV Q4Dx4 (Groups 2-4)): tolerated without treatment-related deaths
maximum tolerated dose (MTD) ([2]; E7389 IV Q4Dx4, doses up to 0.6 mg/kg/injection): not reached
dryness of the skin ([2]; mouse, in vivo): not noted
mean body weight loss ([2]; mouse, in vivo, iv, 0.2 mg/kg): did not result in mean body weight loss
maximum mean body weight loss ([2]; mouse, in vivo, iv, 0.4 mg/kg): 1%
maximum mean body weight loss ([2]; mouse, in vivo, iv, 0.6 mg/kg): 1%

C=C1C[C@@H]2CC[C@@]34C[C@H]5O[C@H]6[C@@H](O3)[C@H]3O[C@H](CC[C@@H]3O[C@H]6[C@H]5O4)CC(=O)C[C@@H]3[C@@H](OC)[C@@H](C[C@H](O)CN)O[C@H]3C[C@H]3O[C@@H](CC[C@@H]1O2)C[C@@H](C)C3=C [Eribulin]
GI50 [3]: 510 pM
